Measurements as given in patent US20260158092A1, “COMPOSITION COMPRISING AT LEAST ONE CANNABIS EXTRACT FOR USE IN THE TREATMENT OF AN INFLAMMATORY BOWEL DISEASE” (LINNEA SA, priority 2022, published 2026).
Entries after “also recorded” stand apart in the source; their conditions may differ.

Tests used:
[1] = test system: human microbiota of fecal origin; assay: Prebiotic effect: butyric acid (SCFA) production after fecal fermentation; conditions: for butyric acid (SCFA) production, Mean (n = 4): LC-MS analysis, human microbiota of fecal origin
Method: In the last phase of the project, the prebiotic effect of the extracts 5 and 6 towards enteric bacterial strains was evaluated by means of fecal fermentation followed by gene analysis of selected strains.
Following fermentation of the extracts, the level of butyric acid produced by the intestinal flora was measured as an indicator of SCFA production. The reliability of the quantitative analysis was reinforced by two different techniques, namely an ELISA assay and mass spectrometry.
Table 2 below reports the prebiotic effect of the extracts 5 and 6 subjected to intestinal digestion (5d, 6d) and of the cannabinoids (CBD, CBG) in terms of induction of butyric acid (SCFA) production by the human microbiota of fecal origin. The result is expressed in μg/mL (LC-MS analysis).

CXCL10 = CXCL10 secretion in undifferentiated CaCo-2 cells (colonocytes) under pro-inflammatory stimulation; assay type: cell-based, human; conditions: cannabinoids 8 μM; for CXCL-10 release: colonocyte, IL-1β/IFN-γ, Phase 3, extracts subjected to digestion 100 μg/mL; for CXCL10 secretion: colonocytes, 10 ng/mL IFNγ and 10 ng/mL IL-1β, 24 hours, extracts 100 μg/mL
Method: Firstly, the individual cannabinoids CBD and CBG in undifferentiated cells (colonocytes) were analysed by comparing two different pro-inflammatory mixtures, in order to simplify the pro-inflammatory stimulation and the activation pathways involved. The pro-inflammatory mixture 50 ng/mL TNFα, 10 ng/mL LPS, 50 ng/ml IFNγ and 25 ng/ml IL-1ß mimics an inflammatory disease with a bacterial aetiology and was compared with a less complex mixture, consisting of 10 ng/mL IFNγ and 10 ng/mL IL-1β, deprived of the “bacterial” component, therefore more characteristic of an advanced inflammatory disease.
From the analysis of the pro-inflammatory genes most regulated by the application of the pro-inflammatory mixture, chemokines of the CXC family particularly over-expressed in the enterocyte and colonocyte emerged (FIG. 4).
The used concentration of the cannabinoids (8 μM) corresponds to a quantity equal to […] in the extracts at a concentration of 100 μg/mL.
Based on the results obtained, the effects of the different extracts were evaluated using the pro-inflammatory stimulation consisting of 10 ng/mL IFNγ and 10 ng/mL IL-1β.
(§1) Consequently, the effect of the extracts at the protein level, especially in the colonocyte, was evaluated by ELISA assays for inflammatory mediators selected starting from the transcriptional data. All mediators are regulated by NF-κB.

CXCL-9, CXCL-10 = assay: Release of inflammatory mediators (CXCL-9, CXCL-10) by the enterocyte; assay type: cell-based, human; conditions: enterocyte model; IL-1β/IFN-γ; extracts subjected to digestion 100 μg/mL, cannabinoids 8 μM
Method: (§2) FIG. 19: Effect of the extracts 5 and 6 subjected to intestinal digestion (5d, 6d) and of the cannabinoids (CBD, CBG) on the release of inflammatory mediators (CXCL-9, CXCL-10) by the enterocyte. The extracts (100 μg/mL) and the isolated molecules (8 μM) were used in the treatment concomitant with pro-inflammatory stimulation (IL-1β/IFN-γ), arbitrarily placed at 100% . * p<0.05; ** p<0.01; *** p<0.001 (one-way ANOVA test) vs IL-1β/IFN-γ. The data are the mean±SEM of at least three duplicate experiments.
The same was highlighted with the use of pure cannabinoids. In analogy with the colonocyte, the release of IL-15 was found not relevant in the enterocyte model, compared to an increase at the transcriptional level.

CCL-20 = CCL-20 release by the colonocyte (ELISA); assay type: cell-based, human; conditions: IL-1β/IFN-γ, extracts subjected to digestion 100 μg/mL, cannabinoids 8 μM
Method: as §2, with “FIGS. 18A, 18B, 18C and 18D:” for “FIG. 19:”, “CXCL-10, CCL-20, IL-15)” for “CXCL-10)”, “colonocyte.” for “enterocyte.”
as §1

CXCL-9 = CXCL-9 release by the colonocyte (ELISA); assay type: cell-based, human; conditions: IL-1β/IFN-γ, extracts subjected to digestion 100 μg/mL, cannabinoids 8 μM
Method: as §2, with “FIGS. 18A, 18B, 18C and 18D:” for “FIG. 19:”, “CXCL-10, CCL-20, IL-15)” for “CXCL-10)”, “colonocyte.” for “enterocyte.”
as §1

[2] = test system: undifferentiated CaCo-2 cells (colonocytes); assay: Cytotoxicity / cell viability (MTT) in colonocytes
Method: Firstly, the cytotoxicity of the extracts in the undifferentiated CaCo-2 cells (colonocytes) at 100 μg/mL was evaluated.
In the first phase of the work, the combination of IL-1β (10 ng/ml) and IFN-γ (10 ng/mL) was selected as pro-inflammatory stimulation. During the third experimental phase, the cytotoxicity of the extracts in both colonocytes and enterocytes was compared, using this pro-inflammatory cocktail.

NF-κB = conditions: human HaCaT keratinocytes; micromolar concentrations; DOI: 10.1002/ptr.6400; cited from earlier work
[3] = test system: NF-κB transcription factor; assay: NF-κB driven transcription, luciferase reporter plasmid in colonocytes; assay type: cell-based, human; conditions: 10 ng/mL IFNγ and 10 ng/mL IL-1β, 6 hours, extracts 100 μg/mL, cannabinoids 8 μM
Source text: The use of this promoter allows the effect of the extracts/active molecules on transcription driven by this transcription factor to be observed.

Compound	butyric acid (SCFA) production, Mean (n = 4) [1] [µg/mL]	increase in butyric acid levels ([1]; fecal fermentation) [times]	CXCL-10 release (CXCL10)	CXCL10 secretion (CXCL10)	release of inflammatory mediators (CXCL-9, CXCL-10)	CCL-20 release (CCL-20)	CXCL-9 release (CXCL-9)	cell viability / cytotoxicity (MTT) ([2]; 10 ng/mL IFNγ and 10 ng/mL IL-1β, 24 hours, extracts 100 μg/mL, cannabinoids 8 μM)	reduction in viability (MTT) ([2]; IL-1β/IFN-γ, 8 μM) [%]	effect on NF-κB transcription factor (NF-κB)	NF-κB driven transcription [3]
Inulin	638.87	5									
C=C(C)[C@@H]1CCC(C)=C[C@H]1c1c(O)cc(CCCCC)cc1O [CBD, cannabidiol]	212.20		more or less marked inhibitory effect on all the mediators	reduced CXCL10 secretion; also recorded: more active than CBG	never showed inhibitory effects	more or less marked inhibitory effect on all the mediators	more or less marked inhibitory effect on all the mediators	slight reduction in cell viability	−25	inhibitory effect	
CCCCCc1cc(O)c(C/C=C(\C)CCC=C(C)C)c(O)c1 [CBG, cannabigerol]	173.54		participate in the inhibitory activity	reduced CXCL10 secretion	never showed inhibitory effects		participate in the inhibitory activity				more active than CBD
